In patent publication US9434724B2, “Quinuclidines for modulating alpha 7 activity” (priority 2014, dated 2016):
Like-named read-outs stand apart in the source and are kept apart here.

What was measured:
CYP2C19 [1] = molecular target: T1, CYP2C19 (Homo sapiens (Human), UniProt P33261); experiment: Cytochrome P450 inhibition in human liver microsomes, CYP2C19; conditions: read-out: 2C19 IC50, Protocol 1
Human plasma stability = assay type: in vitro ADME; conditions: plasma; for % Remaining @ 2 h: 5 μM
In short: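 Compound remaining was quantified by LC-MS/MS as peak-area ratio to internal standard relative to time 0, with half-lives from single-exponential fits. Protocol 1 incubated 1 μM in heparinized human plasma (pH 7.4, 37° C) to 120 min; protocol 2 used 5 μM, pH 7.4–8.0, 37° C, n=2, to 120 min.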

CYP1A2 = CYP1A2 (Homo sapiens (Human), UniProt P05177); experiment: Cytochrome P450 inhibition in human liver microsomes, CYP1A2; conditions: read-out: 1A2 IC50, Protocol 1
[2] = Metabolic stability assay in rat liver microsomes (RLM); assay type: in vitro ADME; conditions: 1 μM
In short: (§1)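 In Protocol 1, compound was 1 μM final with NADPH at 37 °C, sampled at 0–45 min. In Protocol 2, 1.5 μM compound with 0.75 mg/mL microsomes (pre-NADPH mix) in 0.1 M potassium phosphate, 1 mM EDTA, pH 7.4 was pre-incubated 10 min, then NADPH started the reaction. Both: LC-MS/MS % remaining versus time 0, half-life from single-phase exponential fit.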

[3] = molecular target: rat brain nicotinic receptor (α7 NAChR) (Rattus norvegicus (Rat), UniProt Q05941); assay type: binding
CYP2C9 = CYP2C9 (Homo sapiens (Human), UniProt P11712); experiment: Cytochrome P450 inhibition in human liver microsomes, CYP2C9; conditions: read-out: 2C9 IC50, Protocol 1
[4] = Metabolic stability assay in human liver microsomes (HLM); assay type: in vitro ADME; conditions: 1 μM
In short: as §1

CYP3A4 [5] = molecular target: T2, CYP3A4 (Homo sapiens (Human), UniProt P08684); conditions: microsomes, 5 min
CYP3A4 [6] = molecular target: T2, CYP3A4; experiment: Cytochrome P450 inhibition in human liver microsomes, CYP3A4
CYP2D6 = CYP2D6 (Homo sapiens (Human), UniProt P10635); experiment: Cytochrome P450 inhibition in human liver microsomes, CYP2D6; conditions: read-out: 2D6 IC50, Protocol 1
CYP2C19 [7] = molecular target: T1, CYP2C19; conditions: microsomes, 45 min
[8] = read-out: 3A4 IC50 (Midazolam), substrate midazolam, Protocol 1
[9] = read-out: 3A4 IC50 (Testosterone), substrate testosterone, Protocol 1
[10] = Protocol No. 1, rat liver microsomes
[11] = Protocol No. 1, human liver microsomes

Sequence of rat brain nicotinic receptor (α7 NAChR) (Q05941 23-502 limits assumed): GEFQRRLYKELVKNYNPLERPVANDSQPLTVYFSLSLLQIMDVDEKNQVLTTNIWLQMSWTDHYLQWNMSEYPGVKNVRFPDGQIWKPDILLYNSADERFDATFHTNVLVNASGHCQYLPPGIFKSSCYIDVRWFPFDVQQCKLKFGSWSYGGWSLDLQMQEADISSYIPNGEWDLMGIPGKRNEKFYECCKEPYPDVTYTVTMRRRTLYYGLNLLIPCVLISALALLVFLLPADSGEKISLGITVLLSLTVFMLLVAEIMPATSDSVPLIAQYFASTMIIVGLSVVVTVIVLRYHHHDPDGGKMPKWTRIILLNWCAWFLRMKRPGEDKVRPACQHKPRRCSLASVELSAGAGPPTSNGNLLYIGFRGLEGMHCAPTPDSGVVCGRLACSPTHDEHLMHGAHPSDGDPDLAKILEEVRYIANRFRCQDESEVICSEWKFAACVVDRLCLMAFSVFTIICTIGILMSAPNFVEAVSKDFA
T1 sequence (P33261 whole entry): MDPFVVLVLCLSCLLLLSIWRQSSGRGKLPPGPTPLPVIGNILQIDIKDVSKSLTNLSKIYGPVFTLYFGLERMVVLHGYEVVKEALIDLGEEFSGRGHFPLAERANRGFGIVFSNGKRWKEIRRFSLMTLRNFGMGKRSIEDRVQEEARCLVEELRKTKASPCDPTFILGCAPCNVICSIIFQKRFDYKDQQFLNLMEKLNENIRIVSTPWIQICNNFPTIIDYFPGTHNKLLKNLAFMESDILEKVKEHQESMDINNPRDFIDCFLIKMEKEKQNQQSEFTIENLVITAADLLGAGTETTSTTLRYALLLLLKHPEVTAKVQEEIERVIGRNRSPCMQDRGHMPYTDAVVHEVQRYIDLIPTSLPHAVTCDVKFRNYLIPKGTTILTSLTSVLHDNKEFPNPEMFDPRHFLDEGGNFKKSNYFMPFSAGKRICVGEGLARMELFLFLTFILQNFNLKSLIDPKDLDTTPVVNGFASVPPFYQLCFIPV
Sequence of CYP2C9 (P11712 whole entry): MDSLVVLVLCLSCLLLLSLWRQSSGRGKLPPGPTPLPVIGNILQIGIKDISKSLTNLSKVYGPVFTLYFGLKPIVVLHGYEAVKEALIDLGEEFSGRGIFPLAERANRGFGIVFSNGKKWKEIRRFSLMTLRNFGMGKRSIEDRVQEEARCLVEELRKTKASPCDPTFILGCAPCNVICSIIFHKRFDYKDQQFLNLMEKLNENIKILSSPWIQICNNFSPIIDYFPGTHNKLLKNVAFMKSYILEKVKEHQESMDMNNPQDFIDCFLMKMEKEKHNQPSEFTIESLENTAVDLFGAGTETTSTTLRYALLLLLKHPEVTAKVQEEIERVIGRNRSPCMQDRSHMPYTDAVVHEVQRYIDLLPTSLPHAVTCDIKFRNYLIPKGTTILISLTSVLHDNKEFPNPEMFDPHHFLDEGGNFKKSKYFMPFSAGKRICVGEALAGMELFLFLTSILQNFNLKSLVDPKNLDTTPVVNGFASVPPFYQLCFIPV
Sequence of CYP1A2 (P05177 whole entry): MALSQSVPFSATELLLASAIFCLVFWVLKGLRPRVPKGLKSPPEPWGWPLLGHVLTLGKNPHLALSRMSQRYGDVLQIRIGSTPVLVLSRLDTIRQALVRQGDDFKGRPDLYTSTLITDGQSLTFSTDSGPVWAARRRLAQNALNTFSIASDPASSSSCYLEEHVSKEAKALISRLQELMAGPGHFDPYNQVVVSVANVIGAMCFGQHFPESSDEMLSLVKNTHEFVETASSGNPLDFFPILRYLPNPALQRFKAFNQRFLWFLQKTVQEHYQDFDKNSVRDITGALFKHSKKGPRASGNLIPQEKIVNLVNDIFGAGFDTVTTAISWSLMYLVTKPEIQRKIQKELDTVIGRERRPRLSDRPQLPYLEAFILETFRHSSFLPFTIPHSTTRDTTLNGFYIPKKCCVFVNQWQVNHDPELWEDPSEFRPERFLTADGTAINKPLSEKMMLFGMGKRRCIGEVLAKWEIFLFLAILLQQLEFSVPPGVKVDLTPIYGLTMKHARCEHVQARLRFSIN
T2 sequence (P08684 whole entry): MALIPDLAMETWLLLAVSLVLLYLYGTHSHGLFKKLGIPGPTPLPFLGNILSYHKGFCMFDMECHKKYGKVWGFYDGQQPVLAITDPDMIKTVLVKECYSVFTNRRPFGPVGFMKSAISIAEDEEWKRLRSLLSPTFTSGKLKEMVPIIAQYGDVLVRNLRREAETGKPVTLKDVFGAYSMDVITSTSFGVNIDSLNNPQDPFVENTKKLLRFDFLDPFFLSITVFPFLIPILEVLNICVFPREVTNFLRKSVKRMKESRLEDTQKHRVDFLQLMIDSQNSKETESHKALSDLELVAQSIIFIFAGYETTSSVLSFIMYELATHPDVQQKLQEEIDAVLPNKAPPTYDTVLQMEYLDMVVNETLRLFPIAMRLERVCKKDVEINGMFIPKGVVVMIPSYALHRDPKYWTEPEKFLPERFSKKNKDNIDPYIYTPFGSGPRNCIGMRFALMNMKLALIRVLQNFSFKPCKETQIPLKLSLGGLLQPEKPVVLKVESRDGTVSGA
Sequence of CYP2D6 (P10635 whole entry): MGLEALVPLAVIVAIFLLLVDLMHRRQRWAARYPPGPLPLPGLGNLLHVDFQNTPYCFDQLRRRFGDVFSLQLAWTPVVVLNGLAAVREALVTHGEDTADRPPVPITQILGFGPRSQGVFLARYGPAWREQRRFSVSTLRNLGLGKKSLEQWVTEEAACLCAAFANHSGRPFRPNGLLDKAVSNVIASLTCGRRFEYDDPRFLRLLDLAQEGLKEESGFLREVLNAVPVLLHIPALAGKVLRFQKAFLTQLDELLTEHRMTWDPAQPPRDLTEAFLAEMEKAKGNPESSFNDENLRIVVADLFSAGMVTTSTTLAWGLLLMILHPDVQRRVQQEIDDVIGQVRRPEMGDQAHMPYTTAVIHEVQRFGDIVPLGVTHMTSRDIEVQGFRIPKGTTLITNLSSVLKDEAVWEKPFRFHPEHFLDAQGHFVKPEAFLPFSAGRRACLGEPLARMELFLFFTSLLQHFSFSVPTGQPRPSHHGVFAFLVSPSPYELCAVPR

SMILES	IC50 (CYP2C19 [1]) [µM]	T1/2 (Human plasma stability; human)	% Remaining @ 2 h (Human plasma stability; human, 2 h) [%]	IC50 (CYP1A2) [µM]	RLM ([2]; rat, microsomes) [mL/min/kg]	IC50 [3] [µM]	Ki [3] [µM]	IC50 (CYP2C9) [µM]	HLM ([4]; human, microsomes) [mL/min/kg]	IC50 (CYP3A4 [5]) [µM]	IC50 (CYP3A4 [6]; [8]) [µM]	IC50 (CYP3A4 [6]; [9]) [µM]	% Remaining @ 2 h (Human plasma stability; Protocol No. 2, 37° C.) [%]	IC50 (CYP2D6) [µM]	RLM [2, 10] [mL/min/kg]	HLM [4, 11] [mL/min/kg]	IC50 (CYP2C19 [7]) [µM]
Cc1cc(Cl)cc2[nH]cc(C(=O)OCC34CCN(CC3)CC4)c12 [Compound 50, quinuclidin-4-ylmethyl 6-chloro-4-methyl-1H-indole-3-carboxylate]	> 10	∞	100.92	> 10	187.575	1.29	1.1	> 10	2.98	> 10	–	–	–	–	–	–	–
Cl.O=C(OCC12CCN(CC1)CC2)c1c[nH]c2cc(F)c(F)cc12 [Compound 51, Quinuclidin-4-ylmethyl 5,6-difluoro-1H-indole-3-carboxylate hydrochloride]	> 10	–	–	> 10	–	0.662	0.568	> 10	–	–	> 10	> 10	79.3649	> 10	716.882	1.004	–
O=C(OCC12CCN(CC1)CC2)c1c[nH]c2cc(O)cc(Br)c12 [Compound 53, quinuclidin-4-ylmethyl 4-bromo-6-hydroxy-1H-indole-3-carboxylate]	> 10	–	–	> 10	–	0.0536	0.046	> 10	–	–	> 10	> 10	95.5	> 10	29.9085	8.304	–
Cc1cc(C)c2c(C(=O)OCC34CCN(CC3)CC4)c[nH]c2c1 [Compound 54, quinuclidin-4-ylmethyl 4,6-dimethyl-1H-indole-3-carboxylate]	–	–	89.87	> 10	175.357	0.4	0.343	–	5.294	> 10	–	–	–	–	–	–	> 10
Cc1cc2c(C(=O)OCC34CCN(CC3)CC4)c[nH]c2cc1O [Compound 55, quinuclidin-4-ylmethyl 6-hydroxy-5-methyl-1H-indole-3-carboxylate]	–	–	40.33	> 10	45.1417	0.0523	0.0448	–	10.3473	> 10	–	–	–	> 10	–	–	> 10
COc1cc2[nH]cc(C(=O)OCC34CCN(CC3)CC4)c2cc1C [Compound 56, quinuclidin-4-ylmethyl 6-methoxy-5-methyl-1H-indole-3-carboxylate]	–	–	77.82	> 10	1196.24	0.644	0.552	–	4.868	> 10	–	–	–	–	–	–	> 10
COc1cc2c(C(=O)OCC34CCN(CC3)CC4)c[nH]c2cc1F [Compound 57, quinuclidin-4-ylmethyl 6-fluoro-5-methoxy-1H-indole-3-carboxylate]	> 10	–	–	> 10	–	0.257	0.221	> 10	–	–	> 10	> 10	76.33	> 10	153.227	0	–
Cl.O=C(OCC12CCN(CC1)CC2)c1c[nH]c2cc(O)c(F)cc12 [Compound 59, Quinuclidin-4-ylmethyl 5-fluoro-6-hydroxy-1H-indole-3-carboxylate hydrochloride]	20.9	–	–	> 10	–	0.0701	0.0602	> 10	–	–	> 10	> 10	53.78	> 10	24.713	0	–
Cc1cc(O)cc2[nH]cc(C(=O)OCC34CCN(CC3)CC4)c12 [Compound 83, quinuclidin-4-ylmethyl 6-hydroxy-4-methyl-1H-indole-3-carboxylate]	> 10	–	71.57	> 10	14.09	0.0318	0.0279	> 10	2.7	> 10	–	–	–	–	–	–	–
